Data reported in patent US20020048580A1, “Method of inducing lung branching” (Institut National De La Sante Et De La Recherche Medicale, priority 2000, published 2002).
“Also recorded” adds a separate entry of the source. Read-outs that look alike come from different tables or passages of the source.

Assays:
[1] = tested on: pulmonary alveoli; conditions: cited from earlier work; for number of pulmonary alveoli: postnatal treatment, newborn rats
[2] = tested on: RARβ transcripts; assay: RARβ expression in lung explants (whole-mount ISH, RNAse protection); format: cell-based, mouse; conditions: for retinoid-induced changes in RARβ expression: 10^−6 M RA and 10^−6 M Compound VIII simultaneously added; for RARβ expression: 10^−6 M, E11.75 lung explants
Protocol: FIG. 3A. Whole-mount ISH for detection of RARβ transcripts following 24 hours of exposure of E11.75 lung explants to either retinoid vehicle alone, 10^−6 M RA or 10^−6 M Compound VIII.
FIG. 3B. RNAse protection analyses of RARβ 1/3/4, RARβ2 and vimentin transcripts in lungs explanted at E11.75 and cultured for four days in the presence of retinoids or ethanol; the explants were analyzed four hours after the last addition of the retinoids and/or ethanol to the culture media (2 μg RNA per track; exposure times, four to 24 hours).
The expression pattern of RARβ transcripts in E11.75 lung explants cultured for 24 hours in the absence of retinoids was similar to that observed in vivo at E13.5 (FIG. 3A). […] It is also noteworthy that only limited changes in the expression of vimentin, a specific mesenchymal marker, occurred following retinoid treatment (FIG. 3B). […] In order to investigate this possibility, we compared the effects of 10^−6 M RA upon ATBN in explants from RARβ null embryos (Ghyselinck, N. B., et al., Int. J. Dev. Biol. 41:425-447 (1997)), heterozygotesi and wild type littermates. […] The explants were then treated for 48 hours with 10^−6 M RA (FIG. 3C).
Total RNA preparation, RNAse protection assays and in situ hybridizations were performed as previously described (Chirgwin, J. M., et al., Biochemistry 18:5294-5299 (1979); Décimo, D., et al., “In situ hybridization of nucleic acid probes to cellular RNA,” in Gene Probes 2, A Practical Approach, Hames, B. D. and Higgins, S., eds.: Oxford University Press (1995) pp. 183-210; Mollard, R. and Dziadek, M., Int. J. Dev. Biol. 41:655-666 (1997); Ghyselinck, N. B., et al., Int. J. Dev. Biol. 41:425-447 (1997)). CRBPI, H4, RARβ and vimentin cDNAs have been previously described (Ghyselinck, N. B., et al., Int. J. Dev. Biol. 41:425-447 (1997); Mollard, R. and Dziadek, M., Int. J. Dev. Biol. 41:655-666 (1997)).

[3] = tested on: E8.0 embryos; assay: Whole embryo culture, primary lung bud and oesophagotracheal fold formation; format: cell-based, mouse
Protocol: Embryos were collected at E8.0 (i.e. 36 hours prior to the formation of primary lung buds and tracheal diverticulum; Kaufman, M. H., The Atlas of Mouse Development, London Academic Press (1992)), and cultured for 48 hours (i.e. until the equivalent of E9.5 in vivo) either in the presence of the pan-RAR antagonist, Compound VIII (Chazaud, C., et al., Development 126:2589-2596 (1999); Wendling, O., et al., Development 127:1553-62 (2000), or in the presence of the retinoid vehicle (i.e. ethanol alone). Treatment with 10^−6 M Compound VIII, inhibited primary lung bud outgrowth (FIGS. 1A-1D; l and r) and caused a failure of oesophagotracheal fold formation (arrowheads in FIG. 1F compare with FIG. 1G). […] Therefore, a block in RA signal transduction before and at the onset of lung bud appearance inhibits the formation of the respiratory system from the primitive foregut.
Whole embryos from CD 1×CD 1 crosses were collected at E8.0, staged and cultured according to previously described methods in the presence of retinoids or ethanol vehicle alone for 48 hours (New D.A.T., Postimplantation Mammalian Embryos: A Practical Approach, Cop, A. J. and Cockroft, D. L., eds., Oxford University Press (1990); Wendling, O., et al., Development 127:1553-62 (2000)). For morphological assessment, serial transverse histological sections were stained with hematoxylin and eosin.

[4] = tested on: E11.75 wild type lungs; assay: Lung explant culture, average terminal bud number (ATBN), wild type; format: cell-based, mouse; conditions: for retinoid-induced changes in ATBN: 10^−6 M RA and 10^−6 M Compound VIII simultaneously added; for average terminal bud number (ATBN): 4 days in culture
Protocol: Lung explants from E11.75 or E12.5 embryos were cultured for 4 days, unless otherwise indicated. Control explants were cultured in the presence of the retinoid vehicle alone.
The mouse lines carrying the RARβ, RARγ and CRBPI null mutations and their genotyping protocols have been described previously (Lohnes, D., et al., Cell 73:643-658 (1993); Ghyselinck, N. B., et al., Int. J. Dev. Biol. 41:425-447 (1997); Ghyselinck, N. B., et al., EMBO J. 18:4903-4914 (1999)). The morning of appearance of the vaginal plug was designated as E0.5. For explant culture, E11.75 and E12.5 lungs from RARβ^+/−×RARβ^+/−, RARγ^+/−×RARγ^+/−, CRBPI^−/−×CRBPI^−/− and wildtype crosses were dissected in PBS and incubated in BGJB medium (Fitton-Jackson modified, GibcoBRL), 5% delipidated fetal calf serum (FCS, GibcoBRL) and […] vitamin C (Sigma) on millipore filters (GibcoBRL), at 37° C., in the presence of 5% CO2. Half of the media, supplemented with fresh retinoids (see below), was changed daily. The cultured lung buds reproducibly grew and branched for at least seven days in culture (data not shown). Average terminal bud number (ATBN) was calculated after counting every bud in each explant at 0, 24, 48, 72 and 96 hours after the commencement of culture. Significant differences in ATBN between different groups were determined by ANOVA and Newman-Keuls multiple comparison tests according to previously described methods (Motulsky, H., Intuitive Biostatistics, New York: Oxford University Press (1995)). The synthetic retinoid Compound VIII [a specific pan RAR (α, β and γ) antagonist (Bristol-Myers-Squibb, N.J.); Chazaud, C., et al., Development 126:2589-2596 (1999); Wendling, O., et al., Development 127:1553-62 (2000)] and RA (all-trans retinoic acid) (Sigma) were diluted in ethanol and added to the culture medium at a final ethanol concentration of 0.1% at the beginning of culture and every subsequent 24 hours.

[5] = tested on: lung cultures; conditions: cited from earlier work
[6] = tested on: CRBPI transcripts; assay: CRBPI expression in cultured lungs (RNAse protection); format: cell-based, mouse; conditions: 10^−6 M, cultured E12.5 wild type lungs
Protocol: FIG. 5A. RNAse protection analysis of CRBPI transcripts in E11.75 wild type lungs cultured for four days in the presence of retinoids or ethanol; the explants were analyzed four hours after the last addition of the retinoids, and/or ethanol to the culture media (2 μg RNA per track; exposure times, four to 24 hours). Six experiments per group, 10 lungs per experiment.
The lung at the pseudoglandular stage is a major site of expression of CRBPI in the embryo (Dollé, P., et al., Development 110:1133-1151 (1990)). In cultured E12.5 wild type lungs, CRBPI expression was increased in the presence of 10^−6 M RA and decreased by 10^−6 M Compound VIII (FIG. 5A). Thus, increased and decreased expression of CRBPI are correlated with retinoid-induced inhibition and stimulation of branching, respectively. To further test an involvement of CRBPI in lung morphogenesis, explants from E12.5 CRBPI null mutants (Ghyselinck, N. B., et al., EMBO J. 18:4903-4914 (1999)) were cultured in the presence of various concentrations of the pan-RAR antagonist. […]

[7] = tested on: E12.5 RARβ wild type, heterozygote (+/−) and null (−/−) mutant lungs; assay: ATBN in lung explants from RARβ null, heterozygote and wild type littermates; format: cell-based, mouse; conditions: 10^−6 M, 48 hours, vs RARβ+/− ethanol controls
Protocol: Appearance of representative E12.5 RARβ, heterozygote (+/−) and null (−/−) mutant lungs from RARβ^+/−/RARβ^+/− crosses, cultured for 24 hours in the absence of retinoids and then 48 hours in the presence of either vehicle alone or 10^−6 M RA. The accompanying histogram depicts ATBN versus treatment at 72 hours of culture; each group consists of seven explants and is representative of two individual experiments. b1=primary bronchi; b2=secondary bronchi; db=distal bud; m=mesenchyme; * p<0.01 relative to control. Error bars represent +/− standard deviation.
For explant culture, E11.75 and E12.5 lungs from RARβ^+/−×RARβ^+/−, RARγ^+/−×RARγ^+/−, CRBPI^−/−×CRBPI^−/− and wildtype crosses were dissected in PBS and incubated in BGJB medium (Fitton-Jackson modified, GibcoBRL), 5% delipidated fetal calf serum (FCS, GibcoBRL) and 180mg/ml vitamin C (Sigma) on millipore filters (GibcoBRL), at 37° C., in the presence of 5% CO2. Half of the media, supplemented with fresh retinoids (see below), was changed daily. […] Average terminal bud number (ATBN) was calculated after counting every bud in each explant at 0, 24, 48, 72 and 96 hours after the commencement of culture. Significant differences in ATBN between different groups were determined by ANOVA and Newman-Keuls multiple comparison tests according to previously described methods (Motulsky, H., Intuitive Biostatistics, New York: Oxford University Press (1995)).

[8] = tested on: E12.5 CRBPI null mutant lungs; assay: ATBN in CRBPI null mutant lung explants; format: cell-based, mouse
Description: FIG. 5B. ATBN in CRBPI null mutant lungs cultured for four days in the presence of either ethanol alone (control), or 10^−6 M or 10^−7 M Compound VIII. Six explants per group, three individual experiments; * p<0.01 relative to control. Error bars represent +/− standard deviation.
The lung at the pseudoglandular stage is a major site of expression of CRBPI in the embryo (Dollé, P., et al., Development 110:1133-1151 (1990)). In cultured E12.5 wild type lungs, CRBPI expression was increased in the presence of 10^−6 M RA and decreased by 10^−6 M Compound VIII (FIG. 5A). […]
(§1) The mouse lines carrying the RARβ, RARγ and CRBPI null mutations and their genotyping protocols have been described previously (Lohnes, D., et al., Cell 73:643-658 (1993); Ghyselinck, N. B., et al., Int. J. Dev. Biol. 41:425-447 (1997); Ghyselinck, N. B., et al., EMBO J. 18:4903-4914 (1999)). […] Average terminal bud number (ATBN) was calculated after counting every bud in each explant at 0, 24, 48, 72 and 96 hours after the commencement of culture. Significant differences in ATBN between different groups were determined by ANOVA and Newman-Keuls multiple comparison tests according to previously described methods (Motulsky, H., Intuitive Biostatistics, New York: Oxford University Press (1995)). […]

[9] = tested on: E12.5 RARγ wild type (+/+), heterozygote (+/−) and null (−/−) mutant lungs; assay: ATBN in RARγ wild type, heterozygote and null lung explants; format: cell-based, mouse; conditions: 10^−6 M
Protocol: FIG. 4C. E12.5 RARγ wild type (+/+), heterozygote (+/−) and null (−/−) mutant lungs from RARγ^+/−/RARγ^+/−heterozygote crosses were cultured for 24 hours in the absence of retinoids and then for 72 hours in the presence of 10^−6M Compound VIII (seven explants per group, two individual experiments). […] Error bars represent +/− standard deviation. Scale bar=100 μm.
RARα1, RARα2 and RARγ2 transcripts are expressed ubiquitously in E13.5 lungs in vivo. […]
as §1

[10] = 10^−6 M, E8.0 embryos cultured 48 hours, vs ethanol vehicle

CC1=C(/C=C/C(C)=C/C=C/C(C)=C/C(=O)O)C(C)(C)CCC1 [RA, all-trans retinoic acid]
alveolar number ([1]; animal models of emphysema): restores
number of pulmonary alveoli [1]: increases
number of pulmonary alveoli ([1]; listed as retinoic acid): increase
retinoid-induced changes in RARβ expression [2]: prevented
RARβ expression [2]: induced the expression of RARβ throughout the pulmonary tree, including the distal buds
Compound VIII-induced defects of lung bud outgrowth and oesophagotracheal fold formation ([3]; simultaneous addition of 10^−6 M Compound VIII and 10^−7 M RA, 48 hours): partially prevented
increased explant size and terminal bud numbers of Compound VIII treated explants ([4]; 10^−6 M Compound VIII with concomitant 10^−6 M RA): reduced
retinoid-induced changes in ATBN [4]: prevented
average terminal bud number (ATBN) ([4]; 10^−6 M): significantly decreased; also recorded: significant decrease
average terminal bud number (ATBN) ([4]; 10^−7 M): significantly decreased; also recorded: significant decrease
average terminal bud number (ATBN) ([4]; 10^−8 M): ineffective
branching morphogenesis [5]: inhibitory effect
CRBPI expression [6]: increased
ATBN ([7]; RARβ null explants): no significant difference
ATBN ([7]; RARβ+/− explants): significant reduction
ATBN ([7]; wild type explants): significant reduction

CC1(C)CC=C(C#Cc2ccccc2)c2cc(/C=C/c3ccc(C(=O)O)cc3)ccc21 [Compound VIII]
retinoid-induced changes in RARβ expression [2]: prevented
RARβ expression [2]: decreased RARβ expression in secondary bronchi
oesophagotracheal fold formation [3, 10]: failure
primary lung bud outgrowth [3, 10]: inhibited
ATBN ([8]; CRBPI null lungs, 10^−7 M, four days): significant increase
sensitivity of CRBPI null lungs relative to wild type lungs to stimulation of distal bud formation ([8]; CRBPI null vs wild type lungs): approximately 10 fold
differences in the stimulation of ATBN between RARγ genotype groups [9]: No significant differences
average terminal bud number (ATBN) ([4]; 2×10^−6 M): significantly increased; also recorded: significant increases
explant size and terminal bud numbers ([4]; 10^−6 M): Increased
retinoid-induced changes in ATBN [4]: prevented
RA-induced decrease in ATBN ([4]; 10^−6 M and 10^−7 M RA with concomitant 10^−6 M Compound VIII): negated
average terminal bud number (ATBN) ([4]; 10^−6 M): significantly increased; also recorded: significant increases
average terminal bud number (ATBN) ([4]; 10^−7 M): ineffective
average terminal bud number (ATBN) ([4]; 10^−8 M): ineffective
CRBPI expression [6]: decreased
